From publication PMC2825141 (Journal of medicinal chemistry, 2009)

Experiments:
G9a [1] = target: T1, G9a (Homo sapiens, UniProt Q96KQ7); assay: DSF stabilization of G9a; assay type: binding; details: compared to 2a
T1 sequence (Q96KQ7 1-1210): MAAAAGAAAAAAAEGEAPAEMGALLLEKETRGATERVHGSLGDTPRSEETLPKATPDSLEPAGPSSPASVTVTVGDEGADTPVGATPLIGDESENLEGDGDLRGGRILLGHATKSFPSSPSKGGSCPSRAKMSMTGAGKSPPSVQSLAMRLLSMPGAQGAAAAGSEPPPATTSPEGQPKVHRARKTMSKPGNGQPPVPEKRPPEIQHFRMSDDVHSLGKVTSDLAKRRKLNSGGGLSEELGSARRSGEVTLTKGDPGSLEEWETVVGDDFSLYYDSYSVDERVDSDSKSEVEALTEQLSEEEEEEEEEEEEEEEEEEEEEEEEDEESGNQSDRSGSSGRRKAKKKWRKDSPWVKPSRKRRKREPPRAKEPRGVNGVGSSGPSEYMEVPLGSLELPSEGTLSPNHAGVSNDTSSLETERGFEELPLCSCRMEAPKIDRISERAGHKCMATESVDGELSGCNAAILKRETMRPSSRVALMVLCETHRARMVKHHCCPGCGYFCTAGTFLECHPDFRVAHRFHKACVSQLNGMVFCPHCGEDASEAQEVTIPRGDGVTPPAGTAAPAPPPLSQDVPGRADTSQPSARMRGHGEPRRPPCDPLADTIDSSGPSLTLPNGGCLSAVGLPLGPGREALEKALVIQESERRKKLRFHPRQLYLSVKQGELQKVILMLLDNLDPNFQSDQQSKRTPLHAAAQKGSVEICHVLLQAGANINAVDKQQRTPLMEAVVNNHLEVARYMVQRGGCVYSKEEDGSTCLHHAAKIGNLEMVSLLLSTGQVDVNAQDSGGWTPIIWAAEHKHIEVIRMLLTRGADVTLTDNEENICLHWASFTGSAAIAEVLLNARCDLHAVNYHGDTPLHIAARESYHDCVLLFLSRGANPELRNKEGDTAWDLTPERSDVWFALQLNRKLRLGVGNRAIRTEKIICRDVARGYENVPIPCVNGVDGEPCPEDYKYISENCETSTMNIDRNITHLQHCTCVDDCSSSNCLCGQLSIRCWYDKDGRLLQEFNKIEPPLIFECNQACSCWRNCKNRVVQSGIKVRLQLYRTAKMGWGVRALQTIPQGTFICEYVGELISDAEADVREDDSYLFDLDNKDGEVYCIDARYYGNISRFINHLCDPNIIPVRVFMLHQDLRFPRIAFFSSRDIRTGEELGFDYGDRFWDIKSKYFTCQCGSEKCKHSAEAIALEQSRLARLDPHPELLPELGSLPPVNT

G9a [2] = target: T1, G9a; assay: G9a FP assay; assay type: binding; details: compared to 2a

## COc1cc2c(NC3CCN(C)CC3)nc(N3CCCN(C)CC3)nc2cc1OCCCN(C)C [Compound 8]
G9a [1]
  Stabilization of G9a in DSF: stabilized G9a better compared to 2a
G9a [2]
  Displacement of fluorescein labeled 15-mer H3 peptide (1–15): displaced fluorescein labeled 15-mer H3 peptide (1–15) better than 2a
